We go through 29 molecules from patent US11667649B2, “Heteroaromatic macrocyclic ether chemotherapeutic agents” (Nuvalent, Inc., priority 2020, dated 2023).

One assay concerns the target T1, TRKA-wt kinase domain (Homo sapiens, UniProt P04629).
T1 construct: TRKA-wt (1 nM, BPS Bio, 40280) kinase domains in buffer; purchased BPS Bio 40280
In words: Biochemical kinase assay, TRKA-wt. The settings on record: 2 mM ATP substrate solution, read-out: Ki^app TRKA-wt. The method, boiled down:
(§1)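 Kinase domains (in kinase solution: ROS1-G2032R 0.5 nM, ROS1-wt 0.6 nM, TRKA 1 nM, ALK L1196M/G1202R 3 nM) were mixed with compound and a substrate solution of 2 mM ATP plus 26 μM fluorogenic AQT0101 (ALK, ROS1) or AQT0104 (TRKA) in HEPES pH 7.5/MgCl2. Fluorescence was followed for 120 min at 30° C; Ki^app was obtained by Morrison fit of initial rates.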

A further assay has as its target T2, ROS1-wt kinase domain (Homo sapiens, UniProt P08922).
T2 construct: TRKA-wt (1 nM, BPS Bio, 40280) kinase domains in buffer; purchased Carna 08-163
The assay can be described thus: Biochemical kinase assay, ROS1-wt. The settings on record: 2 mM ATP substrate solution, read-out: Ki^app ROS1-wt. The method, boiled down: as §1

A further assay has as its target T3, ALK-wt kinase domain (Homo sapiens, UniProt Q9UM73).
T3 construct: TRKA-wt (1 nM, BPS Bio, 40280) kinase domains in buffer; purchased Carna 08-518
The assay can be described thus: Biochemical kinase assay, ALK-wt. The following applies: 2 mM ATP substrate solution, read-out: Ki^app ALK-wt. The method, boiled down:
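Apparent Ki values come from fitting initial reaction rates against inhibitor concentration to the Morrison equation. Rates were taken from the linear phase of fluorogenic substrate phosphorylation (AQT0101 for ALK and ROS1, AQT0104 for TRKA; 26 μM in substrate solution with 2 mM ATP), monitored at 485 nm over 120 min at 30° C.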

In assay [1] the target is T4, ROS1-G2032R kinase domain (Homo sapiens, UniProt P08922, G2032R).
T4 construct: TRKA-wt (1 nM, BPS Bio, 40280) kinase domains in buffer; purchased SignalChem R14-12BG
The assay can be described thus: Biochemical kinase assay, ROS1-G2032R. The settings on record: 2 mM ATP substrate solution, read-out: Ki^app ROS1-G2032R. The method, boiled down: as §1

Assay [2] has as its target T5, ALK L1196M/G1202R kinase domain (Homo sapiens, UniProt Q9UM73, G1202R/L1196M).
T5 construct: TRKA-wt (1 nM, BPS Bio, 40280) kinase domains in buffer; purchased SignalChem A19-12NG
The assay can be described thus: Biochemical kinase assay, ALK L1196M/G1202R. The settings on record: 2 mM ATP substrate solution, read-out: Ki^app ALK-L1196M-G1202R. The method, boiled down: as §1

pKi: −log10 of the molar value.

With `CCn1ncc2c1-c1cnc(N)c(c1)O[C@H](C)c1cc(F)ccc1-n1nc(Br)cc1C2` [Compound 80], the negative logarithm of the Ki (pKi) (at TRKA-wt kinase domain; at ROS1-wt kinase domain; at ALK-wt kinase domain; in assay [1]; in assay [2]) was > 7.30 each time.

In the case of `CCn1nc(C)c2c1-c1cnc(N)c(c1)O[C@H](C)c1cc(F)ccc1-c1nn(C)cc1C2` [Compound 81], the pKi on TRKA-wt kinase domain was 6.30 to 7.30; on ROS1-wt kinase domain, > 7.30; at ALK-wt kinase domain, > 7.30; in assay [1], > 7.30; in assay [2], > 7.30.

Take `Cc1nc2c(s1)Cc1c(c(C#N)nn1C)-c1cnc(N)c(c1)O[C@H](C)c1cc(F)ccc1-2` [Compound 82]: the pKi on TRKA-wt kinase domain was 6.30 to 7.30; at ROS1-wt kinase domain it was > 7.30; at ALK-wt kinase domain it was > 7.30; in assay [1] it was > 7.30; in assay [2], > 7.30.

Turning to `C[C@H]1Oc2cc(cnc2N)-c2c(c(Cl)nn2CC(F)F)Cc2cn(C)nc2-c2ccc(F)cc21` [Compound 83], the pKi at TRKA-wt kinase domain was < 6.30; at ROS1-wt kinase domain, > 7.30; on ALK-wt kinase domain, > 7.30; in assay [1], > 7.30; in assay [2], > 7.30.

With `C[C@H]1Oc2cc(cnc2N)-c2c(cnn2CC(F)F)Cc2cc(C(F)(F)F)nn2-c2ccc(F)cc21` [Compound 84], the pKi on TRKA-wt kinase domain is < 6.30; at ROS1-wt kinase domain, > 7.30; at ALK-wt kinase domain, > 7.30; in assay [1], > 7.30; in assay [2], > 7.30.

As for `C[C@H]1Oc2cc(cnc2N)-c2c(CC(F)F)noc2Cc2cn(C)nc2-c2ccc(F)cc21` [Compound 85], the pKi at TRKA-wt kinase domain is < 6.30; on ROS1-wt kinase domain, > 7.30; on ALK-wt kinase domain, > 7.30; in assay [1], > 7.30; in assay [2], > 7.30.

On to `CCn1ncc2c1-c1cnc(N)c(c1)O[C@H](C)c1cc(F)ccc1-c1nn(C(F)F)cc1C2` [Compound 86], for which the pKi at TRKA-wt kinase domain was < 6.30; on ROS1-wt kinase domain, > 7.30; at ALK-wt kinase domain, > 7.30; in assay [1], > 7.30; in assay [2], 6.30 to 7.30.

With `CCn1ncc2c1-c1cnc(N)c(c1)O[C@H](C)c1cc(F)ccc1-c1nn(C)c(C)c1C2` [Compound 87], the pKi (at TRKA-wt kinase domain; at ROS1-wt kinase domain; at ALK-wt kinase domain; in assay [1]; in assay [2]) was > 7.30 each time.

Consider `CCc1snc2c1-c1cnc(N)c(c1)O[C@H](C)c1cc(F)ccc1-c1nn(C)cc1C2` [Compound 88], for which the pKi on TRKA-wt kinase domain was 6.30 to 7.30; at ROS1-wt kinase domain, > 7.30; on ALK-wt kinase domain, > 7.30; in assay [1], > 7.30; in assay [2], > 7.30.

Consider `CCn1ncc2c1-c1cnc(N)c(c1)OCc1cc(F)ccc1-c1nc(C)sc1C2` [Compound 89], for which the pKi was < 6.30 at TRKA-wt kinase domain; > 7.30 on ROS1-wt kinase domain; > 7.30 on ALK-wt kinase domain; > 7.30 in assay [1]; > 7.30 in assay [2].

Regarding `CCc1noc2c1-c1cnc(N)c(c1)O[C@H](C)c1cc(F)cc(F)c1-c1nn(C)cc1C2` [Compound 90], the pKi is 6.30 to 7.30 at TRKA-wt kinase domain; > 7.30 on ROS1-wt kinase domain; > 7.30 at ALK-wt kinase domain; > 7.30 in assay [1]; > 7.30 in assay [2].

Regarding `C[C@H]1Oc2cc(cnc2N)-c2c(cnn2CC2CC2)Cc2cc(C(F)(F)F)nn2-c2ccc(F)cc21` [Compound 91], the pKi was 6.30 to 7.30 on TRKA-wt kinase domain; > 7.30 on ROS1-wt kinase domain; > 7.30 at ALK-wt kinase domain; > 7.30 in assay [1]; > 7.30 in assay [2].

Take `CCn1ncc2c1-c1cnc(N)c(c1)OCc1cc(F)ccc1-n1nc(C(F)(F)F)cc1C2` [Compound 92]: the pKi at TRKA-wt kinase domain was < 6.30; on ROS1-wt kinase domain, > 7.30; at ALK-wt kinase domain, > 7.30; in assay [1] it was > 7.30; in assay [2] it was > 7.30.

With `CCn1nnc2c1-c1cnc(N)c(c1)O[C@H](C)c1cc(F)ccc1-c1sncc1C2` [Compound 93], the pKi on TRKA-wt kinase domain is 6.30 to 7.30; on ROS1-wt kinase domain it was > 7.30; at ALK-wt kinase domain it was > 7.30; in assay [1], > 7.30; in assay [2], > 7.30.

Turning to `C[C@H]1Oc2cc(cnc2N)-c2c(C#N)nn(C)c2Cc2scnc2-c2ccc(F)cc21` [Compound 94], the pKi on TRKA-wt kinase domain is 6.30 to 7.30; at ROS1-wt kinase domain, > 7.30; on ALK-wt kinase domain it was > 7.30; in assay [1], > 7.30; in assay [2], > 7.30.

Consider `CCn1ncc2c1-c1cnc(N)c(c1)O[C@H](C)c1cc(F)ccc1-n1nc(OC)cc1C2` [Compound 98], for which the pKi (at TRKA-wt kinase domain; at ROS1-wt kinase domain; at ALK-wt kinase domain; in assay [1]; in assay [2]) was > 7.30 in each case.

As to `CCn1ncc2c1-c1cnc(N)c(c1)O[C@H](C)c1cc(F)ccc1-c1nocc1C2` [Compound 99], the pKi at TRKA-wt kinase domain is 6.30 to 7.30; on ROS1-wt kinase domain, > 7.30; on ALK-wt kinase domain, > 7.30; in assay [1], > 7.30; in assay [2], > 7.30.

With `C[C@H]1Oc2cc(cnc2N)-c2c(C#N)nn(C)c2Cc2cccnc2-c2ccc(F)cc21` [Compound 100], the pKi at TRKA-wt kinase domain is 6.30 to 7.30; at ROS1-wt kinase domain, > 7.30; on ALK-wt kinase domain, > 7.30; in assay [1], > 7.30; in assay [2], > 7.30.

`CCn1ncc2c1-c1cnc(N)c(c1)O[C@H](C)c1cc(F)ccc1-n1nc(C(F)F)cc1C2` [Compound 102]: the pKi (on TRKA-wt kinase domain; on ROS1-wt kinase domain; at ALK-wt kinase domain; in assay [1]; in assay [2]) was > 7.30 in each case.

As to `C[C@H]1Oc2cc(cnc2N)-c2c(C#N)nn(C)c2Cc2cc(Cl)nn2-c2ccc(F)cc21` [Compound 103], the pKi on TRKA-wt kinase domain was 6.30 to 7.30; at ROS1-wt kinase domain, > 7.30; on ALK-wt kinase domain, > 7.30; in assay [1], > 7.30; in assay [2], > 7.30.

Consider `C[C@H]1Oc2cc(cnc2N)-c2c(C#N)nn(C)c2Cc2cc(C(F)(F)F)nn2-c2ccc(F)cc21` [Compound 104], for which the pKi on TRKA-wt kinase domain was < 6.30; on ROS1-wt kinase domain, > 7.30; on ALK-wt kinase domain, > 7.30; in assay [1], > 7.30; in assay [2], > 7.30.

In the case of `C[C@H]1Oc2cc(cnc2N)-c2c(C#N)nn(C)c2Cc2cc(F)cnc2-c2ccc(F)cc21` [Compound 105], the pKi at TRKA-wt kinase domain was < 6.30; at ROS1-wt kinase domain, > 7.30; on ALK-wt kinase domain, > 7.30; in assay [1] it was > 7.30; in assay [2], > 7.30.

As for `C[C@H]1Oc2cc(cnc2N)-c2c(nnn2CC2CC2)Cc2cc(F)cnc2-c2ccc(F)cc21` [Compound 106], the pKi at TRKA-wt kinase domain was 6.30 to 7.30; at ROS1-wt kinase domain, > 7.30; at ALK-wt kinase domain it was > 7.30; in assay [1], > 7.30; in assay [2], > 7.30.

As for `CCn1nnc2c1-c1cnc(N)c(c1)O[C@H](C)c1cc(F)ccc1-n1nc(C(F)(F)F)cc1C2` [Compound 107], the pKi at TRKA-wt kinase domain was 6.30 to 7.30; on ROS1-wt kinase domain, > 7.30; at ALK-wt kinase domain it was > 7.30; in assay [1], > 7.30; in assay [2], > 7.30.

For `C[C@H]1Oc2cc(cnc2N)-c2c(nnn2CC2CC2)Cc2cc(Cl)nn2-c2ccc(F)cc21` [Compound 108], the pKi is 6.30 to 7.30 at TRKA-wt kinase domain; > 7.30 at ROS1-wt kinase domain; > 7.30 on ALK-wt kinase domain; > 7.30 in assay [1]; > 7.30 in assay [2].

In the case of `Cc1cc2n(n1)-c1ccc(F)cc1[C@@H](C)Oc1cc(cnc1N)-c1c(cnn1CC1CC1)C2` [Compound 109], the pKi (on TRKA-wt kinase domain; on ROS1-wt kinase domain; on ALK-wt kinase domain; in assay [1]; in assay [2]) was > 7.30 in each case.

Consider `Nc1ncc2cc1OCc1cc(F)ccc1-n1nc(Cl)cc1Cc1nnn(CC3CC3)c1-2` [Compound 110], for which the pKi was < 6.30 on TRKA-wt kinase domain; > 7.30 on ROS1-wt kinase domain; > 7.30 on ALK-wt kinase domain; > 7.30 in assay [1]; > 7.30 in assay [2].

With `C[C@H]1Oc2cc(cnc2N)-c2c(nn(C)c2C#N)Cc2cn(C)nc2-c2ccc(F)cc21` [Compound 111], the pKi is 6.30 to 7.30 at TRKA-wt kinase domain; > 7.30 on ROS1-wt kinase domain; > 7.30 at ALK-wt kinase domain; > 7.30 in assay [1]; > 7.30 in assay [2].

As to `C[C@H]1Oc2cc(cnc2N)-c2c(nn(C)c2C#N)Cc2cccnc2-c2ccc(F)cc21` [Compound 112], the pKi is 6.30 to 7.30 on TRKA-wt kinase domain; > 7.30 at ROS1-wt kinase domain; > 7.30 at ALK-wt kinase domain; > 7.30 in assay [1]; > 7.30 in assay [2].
